# Source: patent US20040057958A1, “Immunogenicity-enhancing carriers and compositions thereof and methods of using the same” (priority 2002, published 2004)
# Tested on: mice
# Test: ELISA of antisera from mice immunized with CPT1PaTXL
# Assay type: in vivo
# Conditions: ten mice inoculated SC/IP with CPT1PaTXL (first two inoculations +PTA); any bleed, including the terminal bleed; TXL coupled to BSA for ELISA
# Protocol: The hybridoma project began with a series of sequential inoculations by subcutaneous (SC) or interperitoneal (IP) injections of 100 μg of CPT1PaTXL formulated in PBS. In addition to the CPT1PaTXL, the first two inoculations also contained […] toxin as adjuvant (PTA). All subsequent inoculations were without PTA and had various amounts of CPT1PaTXL according to the following approximate schedule:
# Ten mice were used in the immunization protocol. At each scheduled test bleed, 100 μl of blood was obtained from the tail, and an ELISA was conducted to evaluate reactivity against either Polyglutamate (PG) alone, Paclitaxel (TXL) or CT-2103. Because of the poor solubility of TXL in aqueous solutions, TXL was coupled to Bovine Serum Albumin, fraction V (Sigma Biochemicals, St. Louis Mo.) for ELISA testing. ELISA assays are performed as described in detail in Harlow, E. and Lane, D., Antibodies, A Laboratory Manual, Cold Spring Harbor Laboratory Press, 1988, pp. 564-569. Reactivity against the P. falciparum peptide epitope was analyzed following the terminal bleed.
structure (smiles),measurement,value
"CC(=O)O[C@H]1C(=O)[C@@]2(C)[C@H]([C@H](OC(=O)c3ccccc3)[C@]3(O)C[C@H](OC(=O)[C@H](O)[C@@H](NC(=O)c4ccccc4)c4ccccc4)C(C)=C1C3(C)C)[C@]1(OC(C)=O)CO[C@@H]1C[C@@H]2O [TXL, Paclitaxel]","antibody reactivity (anti-PG, anti-TXL, anti-CT-2103) in ELISA of test bleeds",no detectable
